From US20170240513A1, “SUBSTITUTED PYRIMIDINES AS INHIBITORS OF HIF PROLYL HYDROXYLASE” (MERCK SHARP & DOHME CORP., priority 2014, published 2017) come the findings set out here.

For the assay, the target named is T1, human HIF-PHD2 (Homo sapiens, UniProt Q9GZT9).
T1 construct: FLAG-tagged full length PHD2 expressed in and purified from baculovirus-infected Sf9 cells; FLAG; made in house; host or cells: baculovirus-infected Sf9 cells
Nature of the assay: HIF-PHD2 inhibition of HIF-1α peptide hydroxylation (time resolved fluorescence). As to conditions: FLAG-tagged full length PHD2; 0.2 μM 2-oxoglutarate, 0.5 μM HIF-1α peptide. It counts as biochemical. The method, then:
Select examples of assays that may be used to detect favorable activity are disclosed in the following publications: Oehme, F., et al., Anal. Biochem. 330:74-80 (2004); Hirsilä, M, et al., J. Bio. Chem. 278 (33): 30772-30780 (2005); Hyunju, C., et al., Biochem. Biophys. Res. Comm. 330 275-280 (2005); and Hewitson, K. S., et al., Methods in Enzymology, (Oxygen Biology and Hypoxia); Elsevier Publisher (2007), pg. 25-42 (ISSN: 0076-6879).
To each well of a 384-well plate, 1 μL of test compounds in DMSO (final concentration ranging from 0.3 nM to 10 uM) were added into 20 μl of assay buffer (50 mM Tris pH 7.4/0.01% Tween-20/0.1 mg/ml bovine serum albumin/[…]/1 mM sodium ascorbate/20 μg/ml catalase) containing 0.15 μg/ml FLAG-tagged full length PHD2 expressed in and purified from baculovirus-infected Sf9 cells. After a 5 min preincubation at room temperature, the enzymatic reactions were initiated by the addition of 4 μL of substrates {final concentrations of 0.2 μM 2-oxoglutarate and 0.5 μM HIF-1α peptide biotinyl-DLDLEMLAPYIPMDDDFQL (SEQ ID NO: 1)}. After incubation for 45 minutes at room temperature, the reactions were terminated by the addition of a 25 μL quench/detection mix to a final concentration of 1 mM ortho-phenanthroline, 0.1 mM EDTA, 0.5 nM anti-(His)6 LANCE reagent (Perkin-Elmer Life Sciences), 100 nM AF647-labeled streptavidin (Invitrogen), and 2 μg/ml (His)6-VHL complex {S. Tan Protein Expr. Purif. 21, 224-234 (2001)} and the signals were developed for 30 minutes at room temperature. The ratio of time resolved fluorescence signals at 665 and 620 nm was determined, and percent inhibition was calculated relative to the high control samples (DMSO treated) run in parallel, after background subtraction.

T1 sequence (Q9GZT9 whole entry): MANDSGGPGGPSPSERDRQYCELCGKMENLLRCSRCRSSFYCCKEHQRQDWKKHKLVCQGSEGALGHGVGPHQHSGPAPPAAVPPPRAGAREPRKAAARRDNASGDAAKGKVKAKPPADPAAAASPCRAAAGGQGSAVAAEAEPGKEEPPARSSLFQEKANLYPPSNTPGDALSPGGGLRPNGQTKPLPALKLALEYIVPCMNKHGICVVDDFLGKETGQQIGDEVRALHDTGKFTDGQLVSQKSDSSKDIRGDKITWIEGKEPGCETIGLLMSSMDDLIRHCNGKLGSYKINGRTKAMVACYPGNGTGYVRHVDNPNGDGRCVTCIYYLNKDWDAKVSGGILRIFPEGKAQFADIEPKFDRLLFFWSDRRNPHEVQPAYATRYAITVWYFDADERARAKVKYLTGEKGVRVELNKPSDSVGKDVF

`CC(C)OC(=O)COC(=O)C(C)CNC(=O)c1ncc(C(=O)NC(c2ccccc2)c2ccccc2)c(O)n1` (single isomer, unassigned) [Ex. 30, 2-Isopropoxy-2-oxoethyl 3-(5-(benzhydrylcarbamoyl)-4-hydroxypyrimidine-2-carboxamido)-2-methylpropanoate] showed an IC50 of 179 nM.
The figure for `CCOC(=O)C(C)(O)CNC(=O)c1ncc(C(=O)NC(c2ccccc2)c2ccccc2)c(O)n1` (single isomer, unassigned) [Example 26, Ethyl 3-(5-(benzhydrylcarbamoyl)-4-hydroxypyrimidine-2-carboxamido)-2-hydroxy-2-methylpropanoate] is 940 nM; for `CCOC(=O)C(C)(O)CNC(=O)c1ncc(C(=O)NC(c2ccccc2)c2ccccc2)c(O)n1` (single isomer, unassigned) [Example 27, Ethyl 3-(5-(benzhydrylcarbamoyl)-4-hydroxypyrimidine-2-carboxamido)-2-hydroxy-2-methylpropanoate] it is 879 nM.
The figure for `COC(=O)CCNC(=O)c1ncc(C(=O)NC(c2ccccc2)c2ccccc2)c(O)n1` [Ex. 1, Methyl 3-(5-(benzhydrylcarbamoyl)-4-hydroxypyrimidine-2-carboxamido)propanoate] is 14.3 nM; for `O=C(CCNC(=O)c1ncc(C(=O)NC(c2ccccc2)c2ccccc2)c(O)n1)OCCN1CCOCC1` [Ex. 2, 2-morpholinoethyl 3-(5-(benzhydrylcarbamoyl)-4-hydroxypyrimidine-2-carboxamido)propanoate] it is 24.9 nM.
`CCOC(=O)C1(CNC(=O)c2ncc(C(=O)NC(c3ccccc3)c3ccccc3)c(O)n2)CC1` [Ex. 3, ethyl 1-((5-(benzhydrylcarbamoyl)-4-hydroxypyrimidine-2-carboxamido)methyl)cyclopropanecarboxylate] showed an IC50 of 35.6 nM.
As for `CCOC(=O)C(C)(O)CNC(=O)c1ncc(C(=O)NC(c2ccccc2)c2ccccc2)c(O)n1` (stereo not drawn) [Ex. 4, ethyl 3-(5-(benzhydrylcarbamoyl)-4-hydroxypyrimidine-2-carboxamido)-2-hydroxy-2-methylpropanoate], the IC50 came out at 871 nM.
The figure for `CCOC(=O)[C@H](O)CNC(=O)c1ncc(C(=O)NC(c2ccccc2)c2ccccc2)c(O)n1` [Ex. 5, (R)-ethyl 3-(5-(benzhydrylcarbamoyl)-4-hydroxypyrimidine-2-carboxamido)-2-hydroxypropanoate] is 46.4 nM.
The value for `CC(=O)OCOC(=O)CCNC(=O)c1ncc(C(=O)NC(c2ccccc2)c2ccccc2)c(O)n1` [Ex. 7, Acetoxymethyl 3-(5-(benzhydrylcarbamoyl)-4-hydroxypyrimidine-2-carboxamido)propanoate] was 3.11 nM; that for `CC(C)OC(=O)OCOC(=O)CCNC(=O)c1ncc(C(=O)NC(c2ccccc2)c2ccccc2)c(O)n1` [Ex. 8, ((isopropoxycarbonyl)oxy)methyl 3-(5-(benzhydrylcarbamoyl)-4-hydroxypyrimidine-2-carboxamido)propanoate] was 2.81 nM.
The figure for `CCOC(=O)OC(C)OC(=O)CCNC(=O)c1ncc(C(=O)NC(c2ccccc2)c2ccccc2)c(O)n1` (stereo not drawn) [Ex. 9, 1-((ethoxycarbonyl)oxy)ethyl 3-(5-(benzhydrylcarbamoyl)-4-hydroxypyrimidine-2-carboxamido)propanoate] is 6.67 nM.
`CC(C)OC(=O)OC(C)OC(=O)CCNC(=O)c1ncc(C(=O)NC(c2ccccc2)c2ccccc2)c(O)n1` (stereo not drawn) [Ex. 10, 1-((isopropoxycarbonyl)oxy)ethyl 3-(5-(benzhydrylcarbamoyl)-4-hydroxypyrimidine-2-carboxamido)propanoate]: the half-inhibitory concentration (IC50) was found to be 37.2 nM.
The figure for `CC(OC(=O)CCNC(=O)c1ncc(C(=O)NC(c2ccccc2)c2ccccc2)c(O)n1)OC(=O)OC1CCCCC1` (stereo not drawn) [Ex. 11, 1-(((cyclohexyloxy)carbonyl)oxy)ethyl 3-(5-(benzhydrylcarbamoyl)-4-hydroxypyrimidine-2-carboxamido)propanoate] is 42.1 nM; for `CCOC(=O)OCOC(=O)CCNC(=O)c1ncc(C(=O)NC(c2ccccc2)c2ccccc2)c(O)n1` [Ex. 12, ((ethoxycarbonyl)oxy)methyl 3-(5-(benzhydrylcarbamoyl)-4-hydroxypyrimidine-2-carboxamido)propanoate] it is 2.46 nM.
For `CN(C)C(=O)COC(=O)CCNC(=O)c1ncc(C(=O)NC(c2ccccc2)c2ccccc2)c(O)n1` [Ex. 13, 2-(Dimethylamino)-2-oxoethyl 3-(5-(benzhydrylcarbamoyl)-4-hydroxypyrimidine-2-carboxamido)propanoate], half-maximal inhibition (IC50) was put at 159 nM.
The figure for `O=C1CCN(C(=O)c2ncc(C(=O)NC(c3ccccc3)c3ccccc3)c(O)n2)CO1` [Ex. 14, N-Benzhydryl-4-hydroxy-2-(6-oxo-1,3-oxazinane-3-carbonyl)pyrimidine-5-carboxamide] is 11.2 nM.
The value for `O=C(CNC(=O)c1ncc(C(=O)NC(c2ccccc2)c2ccccc2)c(O)n1)Oc1ccc2c(c1)CCC2` [Ex. 15, 2,3-Dihydro-1H-inden-5-yl 2-(5-(benzhydrylcarbamoyl)-4-hydroxypyrimidine-2-carboxamido)acetate] was 11.2 nM.
The value for `CN(C)C(=O)COC(=O)CNC(=O)c1ncc(C(=O)NC(c2ccccc2)c2ccccc2)c(O)n1` [Ex. 16, 2-(dimethylamino)-2-oxoethyl 2-(5-(benzhydrylcarbamoyl)-4-hydroxypyrimidine-2-carboxamido)acetate] was 105 nM; that for `O=C1CN(C(=O)c2ncc(C(=O)NC(c3ccccc3)c3ccccc3)c(O)n2)CO1` [Ex. 17, N-Benzhydryl-4-hydroxy-2-(5-oxooxazolidine-3-carbonyl)pyrimidine-5-carboxamide] was 15.1 nM; that for `CC(C)OC(=O)OC(C)OC(=O)CNC(=O)c1ncc(C(=O)NC(c2ccccc2)c2ccccc2)c(O)n1` (stereo not drawn) [Ex. 18, 1-((isopropoxycarbonyl)oxy)ethyl 2-(5-(benzhydrylcarbamoyl)-4-hydroxypyrimidine-2-carboxamido)acetate] was 43.9 nM.
In the case of `CCOC(=O)OC(C)OC(=O)CNC(=O)c1ncc(C(=O)NC(c2ccccc2)c2ccccc2)c(O)n1` (stereo not drawn) [Ex. 19, 1-((ethoxycarbonyl)oxy)ethyl 2-(5-(benzhydrylcarbamoyl)-4-hydroxypyrimidine-2-carboxamido)acetate], the IC50 turned out to be 32.2 nM.
The figure for `CC(C)OC(=O)OCOC(=O)CNC(=O)c1ncc(C(=O)NC(c2ccccc2)c2ccccc2)c(O)n1` [Ex. 20, ((Isopropoxycarbonyl)oxy)methyl 2-(5-(benzhydrylcarbamoyl)-4-hydroxypyrimidine-2-carboxamido)acetate] is 41 nM.
The value for `CC(C)C(=O)OCOC(=O)CNC(=O)c1ncc(C(=O)NC(c2ccccc2)c2ccccc2)c(O)n1` [Ex. 21, (2-(5-(benzhydrylcarbamoyl)-4-hydroxypyrimidine-2-carboxamido)acetoxy)methyl isobutyrate] was 35 nM.
The value for `CCOC(=O)OCOC(=O)CNC(=O)c1ncc(C(=O)NC(c2ccccc2)c2ccccc2)c(O)n1` [Ex. 22] was 14.7 nM; that for `CC(OC(=O)[C@H](O)CNC(=O)c1ncc(C(=O)NC(c2ccccc2)c2ccccc2)c(O)n1)C(=O)OCc1ccccc1` (stereo partly drawn) [Ex. 23, (2R)-1-(Benzyloxy)-1-oxopropan-2-yl 3-(5-(benzhydrylcarbamoyl)-4-hydroxypyrimidine-2-carboxamido)-2-hydroxypropanoate] was 11.2 nM; that for `CCOC(=O)C(OC(=O)[C@H](O)CNC(=O)c1ncc(C(=O)NC(c2ccccc2)c2ccccc2)c(O)n1)c1ccccc1` (stereo partly drawn) [Ex. 24, (2R)-2-ethoxy-2-oxo-1-phenylethyl 3-(5-(benzhydrylcarbamoyl)-4-hydroxypyrimidine-2-carboxamido)-2-hydroxypropanoate] was 326 nM.
`O=C(NC[C@@H](O)C(=O)OC1CCCCC1O)c1ncc(C(=O)NC(c2ccccc2)c2ccccc2)c(O)n1` (stereo partly drawn) [Ex. 25, (2R)-2-Hydroxycyclohexyl 3-(5-(benzhydrylcarbamoyl)-4-hydroxypyrimidine-2-carboxamido)-2-hydroxypropanoate] had an IC50 of 182 nM.
Compound `CC(C)OC(=O)COC(=O)[C@H]1C[C@H](NC(=O)c2ncc(C(=O)NC(c3ccccc3)c3ccccc3)c(O)n2)C1` [Ex. 29, (1R,3R)-2-isopropoxy-2-oxoethyl 3-(5-(benzhydrylcarbamoyl)-4-hydroxypyrimidine-2-carboxamido)cyclobutanecarboxylate] had an IC50 of 171 nM.
The value for `CC(C)OC(=O)CCNC(=O)c1ncc(C(=O)NC(c2ccccc2)c2ccccc2)c(O)n1` [Example 6, Isopropyl 3-(5-(benzhydrylcarbamoyl)-4-hydroxypyrimidine-2-carboxamido)propanoate] was 15.9 nM; that for `O=C(CCNC(=O)c1ncc(C(=O)NC(c2ccccc2)c2ccccc2)c(O)n1)OCc1ccccc1` [Example 28] was 24.3 nM.

As usually defined, the IC50 is the point on the concentration scale where inhibition reaches its midpoint.
